Assay results as given in publication PMC8973283, “First-in-Humans Evaluation of a PD-L1–Binding Peptide PET Radiotracer in Non–Small Cell Lung Cancer Patients” (Journal of Nuclear Medicine, 2022).

Key:
[1] = tested on: NSCLC lesions; details: human, in vivo; cited from earlier work
[2] = tested on: NSCLC lesions; details: human, in vivo
Experimental: Patients were injected intravenously with ^68Ga-NOTA-WL12 (1.9–3.7 MBq/kg). To determine the optimal peptide dose required to obtain high-contrast images, an escalated nonradiolabeled WL12 mass dose was coadministered with the imaging agent. The first 2 patients received 0 μg, the next 3 received 5 ug, then 60 ug, and the final group of 3 received 120 μg. […] The first patient underwent a dynamic scan at 6 time points in 1 h. The remaining 8 patients underwent PET/CT at 1 h after injection, and 6 of those were also scanned at 2 h after injection (2 patients were unable to tolerate the full 2-h examination). […] Images were reconstructed with ordered-subset expectation maximization. […] CT data were used to correct the PET images for attenuation. Vital signs, laboratory studies, and electrocardiograms were obtained before injection, during the screening period, and 2 d after PET/CT.
Images were analyzed by 2 experienced nuclear medicine physicians. […] To compare the uptake differences between the liver, spleen, small intestine (SI), and kidney among patients coadministered with different doses of WL12, multisite measurement was applied, and the uptake was calculated as an average of the number of patients corresponding to different dose administrations separately (Supplemental Fig. 3). […]

[3] = in vivo; details: NOD/SCID, mouse, iv, 7.4 MBq (~0.17 ug), total radioactivity
[4] = target: T1, PD-L1 (CHO-hPD-L1 cells) (Homo sapiens, UniProt Q9NZQ7); assay: In vitro cellular uptake in CHO-hPD-L1 versus CHO cells; type: cell-based; details: CHO-hPD-L1 vs CHO cells
T1 construct: expressed in transfected cells
Description: The Chinese hamster ovary (CHO) cell line was obtained from American Type Culture Collection. A CHO cell line with constitutive PD-L1 expression (CHO-hPD-L1) was generated in our laboratory and described previously ([23]). Details of the cell culture, flow cytometry analysis for PD-L1 expression, and in vitro assays are provided in the supplemental materials.

[5] = Radiation dosimetry in patients (OLINDA/EXM); type: in vivo, human; details: administered dose 224 ± 37 MBq, n = 4
Experimental: Data from 4 patients with 120 μg of coinjected WL12 were used for ^68Ga-NOTA-WL12 dosimetry analysis, and the heart contents, lungs, liver, spleen, pancreas, kidneys, uterus, urinary bladder contents, and body remainder were selected as source organs. The volumes of the source organs manually drawn on CT images were calculated, and their mean counts/mL (kBq/mL) were determined from PET images at 1 and 2 h time points. Dosimetry was estimated using OLINDA/EXM software (version 2.0; Hermes Medical Solutions AB). Detailed procedures are provided in the supplemental materials.

[6] = tested on: CHO tumors; assay: Small-animal PET of NOD/SCID mice bearing negative control CHO tumors; type: in vivo
[7] = Clinical safety monitoring after PET/CT; type: in vivo, human
Experimental: Patients were injected intravenously with ^68Ga-NOTA-WL12 (1.9–3.7 MBq/kg). To determine the optimal peptide dose required to obtain high-contrast images, an escalated nonradiolabeled WL12 mass dose was coadministered with the imaging agent. The first 2 patients received 0 μg, the next 3 received 5 ug, then 60 ug, and the final group […] received 120 μg. […] The first patient underwent a dynamic scan at 6 time points in 1 h. The remaining 8 patients underwent PET/CT at 1 h after injection, and 6 of those were also scanned at 2 h after injection (2 patients were unable to tolerate the full 2-h examination). […] Images were reconstructed with ordered-subset expectation maximization. CT reconstruction used a standard method with a 512 × 512 matrix and a layer thickness of 3–5 mm. CT data were used to correct the PET images for attenuation. Vital signs, laboratory studies, and electrocardiograms were obtained before injection, during the screening period, and 2 d after PET/CT.

[8] = target: PD-L1 (Homo sapiens, UniProt Q9NZQ7); assay: First-in-human PET/CT in advanced NSCLC patients: tumor uptake and biodistribution
Experimental: (§1) Patients were injected intravenously with ^68Ga-NOTA-WL12 (1.9–3.7 MBq/kg). To determine the optimal peptide dose required to obtain high-contrast images, an escalated nonradiolabeled WL12 mass dose was coadministered with the imaging agent. The first 2 patients received 0 μg, the next 3 received 5 ug, then 60 ug, and the final group of 3 received 120 μg. […] The first patient underwent a dynamic scan at 6 time points in 1 h. The remaining 8 patients underwent PET/CT at 1 h after injection, and 6 of those were also scanned at 2 h after injection (2 patients were unable to tolerate the full 2-h examination). […] Images were reconstructed with ordered-subset expectation maximization. CT reconstruction used a standard method with a 512 × 512 matrix and a layer thickness of 3–5 mm. CT data were used to correct the PET images for attenuation.
(§2) Images were analyzed by 2 experienced nuclear medicine physicians. The uptake parameters of major organs, tissues, and lesions were obtained to determine the organ biodistribution. SUVlean (SUL) was obtained by standardizing SUV to the body mass, which is less dependent on body habitus ([24]). […] Accordingly, we used SULmean and percentage of injected activity to describe radiopharmaceutical uptake in normal organs. To compare the uptake differences between the liver, spleen, small intestine (SI), and kidney among patients coadministered with different doses of WL12, multisite measurement was applied, and the uptake was calculated as an average of the number of patients corresponding to different dose administrations separately (Supplemental Fig. 3). To analyze normal organ uptake at different time points, 6 patients with 1- and 2-h imaging were involved. The maximum, peak, and mean values of SUV and SUL in biopsied lesions were obtained and used to correlate with PD-L1 TPS. Tumor uptake of ^68Ga-NOTA-WL12 higher than that of blood pool (BP) was considered positive.

[9] = as above; details: human, iv
Experimental: as §1, §2

[10] = tested on: CHO-hPD-L1 tumors; assay: Small-animal PET of NOD/SCID mice bearing CHO-hPD-L1 tumors; details: 50 μg blocking dose coinjected
[11] = 0, 5, 60, 120 μg WL12 coadministered
[12] = 6 patients with 1- and 2-h imaging
[13] = tumor versus lung, total radioactivity

Chain of PD-L1 (Q9NZQ7 19-290): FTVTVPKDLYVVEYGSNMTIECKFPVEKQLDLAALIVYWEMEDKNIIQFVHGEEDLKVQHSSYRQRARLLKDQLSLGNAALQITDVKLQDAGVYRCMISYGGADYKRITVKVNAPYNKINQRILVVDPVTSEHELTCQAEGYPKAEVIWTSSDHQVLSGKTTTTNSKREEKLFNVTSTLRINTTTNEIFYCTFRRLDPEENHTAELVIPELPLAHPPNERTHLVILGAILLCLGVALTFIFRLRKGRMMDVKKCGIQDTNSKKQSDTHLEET
T1 sequence (Q9NZQ7 19-290): as above

SMILES: OC[C@H]1OC(O)[C@H]([18F])[C@@H](O)[C@@H]1O (stereo partly drawn) [^18F-FDG]
- radiation dose of conventional PET/CT [1]: 7.0–14 mSv
- uptake in tumors [2]: intense

SMILES: CCCC[C@H]1C(=O)N(C)[C@@H](CCCC)C(=O)N[C@@H](CCCNC(=O)CN2CCN(CC(=O)O)CCN(CC(=O)O)CC2)C(=O)N[C@H](C(=O)NCC(N)=O)CSCC(=O)N[C@@H](Cc2ccc(O)cc2)C(=O)N(C)[C@@H](C)C(=O)N[C@@H](CC(N)=O)C(=O)N2CCC[C@H]2C(=O)N[C@@H](Cc2c[nH]cn2)C(=O)N[C@@H](CC(C)C)C(=O)N2C[C@H](O)C[C@H]2C(=O)N[C@@H](Cc2c[nH]c3ccccc23)C(=O)N[C@@H](CO)C(=O)N[C@@H](Cc2cn(C)c3ccccc23)C(=O)N1C [^68Ga-NOTA-WL12, metal not drawn]
- tissue to tissue ratio at 2 h ([3]; tumor-to-blood-pool uptake (T/BP)): 4.5 ± 0.2
- tissue to tissue ratio at 2 h ([3]; tumor-to-muscle uptake (T/M)): 19.1 ± 1.2
- cellular uptake in vitro [4]: PD-L1–specific uptake
- Effective dose per patient [5]: 4.1 mSv
- tumor uptake in negative control CHO tumors [6]: minimal uptake
- changes in vital signs, laboratory studies, electrocardiograms ([7]; before injection, screening period and 2 d after PET/CT): No significant changes
- adverse or pharmacologic effects ([7]; nine PET/CT examinations, 1.9–3.7 MBq/kg i.v.): no adverse or clinically detectable pharmacologic effects
- change of liver uptake with increasing coadministered precursor dose [8, 11]: decreased
- change of small intestine (SI) uptake with increasing coadministered precursor dose [8, 11]: increased
- change of spleen uptake with increasing coadministered precursor dose [8, 11]: gradual decrease
- kidney and BP uptake at 1 h versus mass of WL12 used ([8]; 0, 5, 60, 120 μg WL12 coadministered, 1 h): remained similar
- change of SI uptake from 1 to 2 h [8, 12]: significant increase
- change of liver uptake from 1 to 2 h [8, 12]: significant decrease
- organ uptake pattern (biodistribution) ([8]; NSCLC patients, PET/CT): mainly observed in the SI and liver
- route of clearance ([8]; NSCLC patients, from uptake in liver, SI and kidneys): primarily through the hepatobiliary system and secondarily through renal excretion
- SUV ([9]; blood pool, SUVmax of blood pool (BP), patient 3, before therapy): 1.78 SUV
- SUV ([9]; left adrenal metastasis, SUVmax of left adrenal metastasis, patient 9, PD-L1 TPS 80%): 5.47 SUV
- SUV ([9]; primary tumor in left lung, SUVmax of primary tumor in left lung, patient 3, PD-L1 TPS 8%): 1.84 SUV
- SUV ([9]; primary tumor, SUVmax of primary tumor, patient 9, PD-L1 TPS 80%): 4.87 SUV
- SUV ([9]; right sacral metastasis, SUVmax of right sacral metastasis, patient 3, PD-L1 TPS 8%): 0.8 SUV
- tissue to tissue ratio at 1 h [9, 13]: 4.45 ± 1.89
- tissue to tissue ratio at 2 h [9, 13]: 5.18 ± 2.27
- SUV ([9]; tumor, SUVmax of tumor before treatment, patient 1, PD-L1 TPS 8%): 2.21 SUV
- SUV ([9]; tumor, SUVmax of tumor before treatment, patient 6, PD-L1 TPS 30%): 3.05 SUV
- tumor uptake with coinjected blocking dose (in vivo specificity) [10]: decreased
